Results from patent publication US20220251105A1, “METHODS OF TREATING A MK2-MEDIATED DISORDER” (Celgene CAR LLC, priority 2019, published 2022).
Like-named read-outs stand apart in the source and are kept apart here.

Tests used:
[1] = test system: Mannan PsA in C57B1/6 mice; test: mannan-induced psoriatic arthritis model; assay type: in vivo, mouse
[2] = steady-state plasma exposure in mouse disease models; assay type: in vivo; conditions: 3 mg/kg
[3] = test system: cytokines and chemokines produced by ankylosing spondylitis patient cells (TNF-α, IL-17A, MCP-1, IL-6); test: ex vivo cytokine and chemokine production by ankylosing spondylitis patient cells; assay type: cell-based, human; conditions: ankylosing spondylitis patient cells in vitro
bone resorption activity = bone resorption activity in vitro; assay type: cell-based
[4] = test system: osteoclast differentiation; test: osteoclast differentiation in vitro; assay type: cell-based
[5] = single intravenous dose pharmacokinetics in CD-1 mice; assay type: in vivo, mouse; conditions: for Vd: read-out: Vdss
Procedure: (§1) In vitro and in vivo studies were conducted to characterize the absorption, PK, distribution, and metabolism of Compound 1. […] Additionally, plasma samples from single dose PK studies in mice and monkeys were evaluated for circulating metabolites.

[6] = single oral dose pharmacokinetics in CD-1 mice; assay type: in vivo, mouse
Procedure: as §1

Mouse/CD-1 = test: exploratory single dose and 14-day repeat-dose toxicity study in mice; assay type: in vivo
Procedure: (§2) A single oral dose study with a 14-day repeat-dose phase was conducted in male and female mice. 250 mg/kg was selected as the highest dose for the repeat dose portion of the study.

[7] = toxicokinetics, exploratory 14-day mouse study; assay type: in vivo; conditions: both sexes, CD-1, mouse, plasma, po, mice, read-out: Mean Day 14 AUC0-last
Procedure: as §2

Monkey/Cynomolgus = test: 7-day repeat dose toxicity study in cynomolgus monkeys; assay type: in vivo; conditions: monkeys, 25, 75, 250 mg/kg/day
Procedure: (§3) In cynomolgus monkeys, a 7-day repeat dose toxicity study was conducted with doses up to 250 mg/kg/day. […] To aid in dose selection for a subsequent pivotal study, an additional study was conducted to determine the maximum feasible dose under optimal feeding conditions in cynomolgus monkeys. […] Dosing monkeys in the fasted state prior to dosing yielded more consistently higher exposures. Therefore, a dose of 375 mg/kg in 0.5% methyl cellulose (400 cps) and 0.1% Tween 80 administered to fasted monkeys was selected for the 14-day repeat-dose phase of the study, and was considered the maximum feasible dose.

[8] = toxicokinetics, 7-day monkey study; assay type: in vivo; conditions: cynomolgus monkey, plasma, oral, monkeys, read-out: Mean Day 7 AUC0-last
Procedure: as §3

[9] = 28-day repeat-dose oral toxicity study in mice; conditions: both sexes, Crl:CD1 (ICR), mouse, in vivo; mice, 28 days
Excerpt: (§4) Additionally, toxicokinetic animals received the vehicle or compound in the same manner and dose levels as the main study groups.

Crl:CD1 (ICR) mice = test: 28-day repeat-dose oral toxicity study in mice; conditions: mouse, in vivo
Excerpt: as §4

[10] = pivotal 28-day repeat-dose toxicity study in monkeys; assay type: in vivo, cynomolgus monkey; conditions: both sexes, cynomolgus monkey, in vivo; monkeys, 28 days, highest dose used; read-out: NOAEL with respect to dose
[11] = test system: cynomolgus monkeys (Macaca fascicularis); test: as above; assay type: in vivo, cynomolgus monkey
[12] = Phase 1 first in human study, pharmacokinetics; assay type: in vivo
TNF-α secretion by PBMCs = test: ex vivo studies of PBMCs from healthy volunteers; assay type: cell-based, human; conditions: at TE of 60%
CYP3A4/5 = test: in vitro assessment of CYP inhibition; assay type: in vitro ADME, human; conditions: in vitro assessments
Procedure: as §1

[13] = test system: Ankylosing spondylitis in HLA B27 Tg rat; test: HLA-B27/Huβ2m transgenic rat model of ankylosing spondylitis
Excerpt: Etanercept and tofactinib (Balagué et al. Profiling of dihydroorotate dehydrogenase, p38 and JAK inhibitors in the rat adjuvant-induced arthritis model: a translational study. Br J Pharmacol. 2012 June; 166(4):1320-32) were included in this rat study as comparator molecules.

[14] = CD-1, plasma, mouse, female, single IV 5 mg/kg
[15] = CD-1, plasma, mouse, male, single IV 5 mg/kg
[16] = CD-1, plasma, mouse, female, single oral 15 mg/kg
[17] = CD-1, plasma, mouse, female, single oral 100 mg/kg
[18] = CD-1, plasma, mouse, male, single oral 15 mg/kg
[19] = CD-1, plasma, mouse, male, single oral 100 mg/kg
[20] = cynomolgus monkey, in vivo, 150 mg/kg/day

Question: Which results are given for `CCOCc1cnc(Cl)nc1Oc1ccc2c(ccc3sc4c(c32)NC[C@@H](C)NC4=O)n1` [Compound 1]?
Answer: % Inhibition by PsASI ([1]; 3 mg/kg, from PsASI-score time curve): 36% by; Minimally Efficacious Dose ([1]; endpoint PsASI score (ear thickness, skin flakiness, paw score combined)): 3 mg/kg; AUC ([2]; BALB/c, mouse, CAIA in BALB/c mice): 626 ng·h/mL; AUC ([2]; BALB/c, mouse, imiquimod ear swelling in BALB/c mice): 917 ng·h/mL; AUC ([2]; C57B1/6, mouse, mannan PsA in C57B1/6 mice): 467 ng·h/mL; production of cytokines and chemokines incl. TNF-α, IL-17A, MCP-1, IL-6 [3]: significantly inhibited; bone resorption activity (bone resorption activity): reduce bone resorption activity in vitro; osteoclast differentiation [4]: inhibit osteoclast differentiation in vitro; AUC [5, 14]: 3400 ng·h/mL; AUC(0-inf) [5, 14]: 3430 ng·h/mL; clearance [5, 14]: 24.3 mL/min/kg; Vd [5, 14]: 2.49 L/kg; half-life ([5]; CD-1, plasma, mouse, female, single IV 5 mg/kg, read-out: t1/2,z (converted)): 6.6 h; AUC [5, 15]: 4160 ng·h/mL; AUC(0-inf) [5, 15]: 4350 ng·h/mL; clearance [5, 15]: 19.2 mL/min/kg; Vd [5, 15]: 5.08 L/kg; half-life ([5]; CD-1, plasma, mouse, male, single IV 5 mg/kg, read-out: t1/2,z (converted)): 7.3 h; half-life ([5]; both sexes, CD-1, mouse, plasma, iv, 5 mg/kg, mice, read-out: terminal half-life (converted)): ~7 h; systemic clearance as % of liver blood flow ([5]; mice, IV): approximately 25 % of liver blood flow; AUC [6, 16]: 5170 ng·h/mL; AUC(0-inf) [6, 16]: 5250 ng·h/mL; Cmax [6, 16]: 1980 ng/mL; Tmax ([6]; CD-1, plasma, mouse, female, single oral 15 mg/kg, read-out: tmax): 0.5 h; AUC [6, 17]: 28200 ng·h/mL; AUC(0-inf) [6, 17]: 28400 ng·h/mL; Cmax [6, 17]: 8080 ng/mL; Tmax ([6]; CD-1, plasma, mouse, female, single oral 100 mg/kg, read-out: tmax): 0.25 h; AUC [6, 18]: 2870 ng·h/mL; AUC(0-inf) [6, 18]: 3040 ng·h/mL; Cmax [6, 18]: 1270 ng/mL; Tmax ([6]; CD-1, plasma, mouse, male, single oral 15 mg/kg, read-out: tmax): 0.25 h; AUC [6, 19]: 19200 ng·h/mL; AUC(0-inf) [6, 19]: 19200 ng·h/mL; Cmax [6, 19]: 6600 ng/mL; Tmax ([6]; CD-1, plasma, mouse, male, single oral 100 mg/kg, read-out: tmax): 0.5 h; bioavailability ([6]; both sexes, CD-1, mouse, plasma, po, mice, doses in the range 15 to 375 mg/kg): 22 to 51%; Tmax ([6]; both sexes, CD-1, mouse, plasma, mice, oral dosing, read-out: time to maximum plasma concentration (tmax)): 0.25 to 1 h; F ([6]; mouse, female, single oral 15 mg/kg): 51%; F ([6]; mouse, female, single oral 100 mg/kg): 41%; F ([6]; mouse, male, single oral 15 mg/kg): 23%; F ([6]; mouse, male, single oral 100 mg/kg): 22%; Findings, 14-day phase (Mouse/CD-1; mice, 15, 75, 250 mg/kg/day): no compound related findings were identified; Findings, single dose phase (Mouse/CD-1; mice, at 750 mg/kg): Cold to touch and shaking; AUC(0-t) ([7]; 15 mg/kg/day): 4820 ng·h/mL; AUC(0-t) ([7]; 75 mg/kg/day): 16600 ng·h/mL; AUC(0-t) ([7]; 250 mg/kg/day): 35100 ng·h/mL; Findings, 7 days (Monkey/Cynomolgus): no compound-related findings in any endpoints; AUC(0-t) ([8]; 25 mg/kg/day): 1090 ng·h/mL; AUC(0-t) ([8]; 75 mg/kg/day): 1170 ng·h/mL; AUC(0-t) ([8]; 250 mg/kg/day): 9440 ng·h/mL; NOAEL at 28 days [9]: 100 mg/kg/day; compound-related findings (Crl:CD1 (ICR) mice; 15 mg/kg/day): no compound-related findings; microscopic finding, skeletal muscle (Crl:CD1 (ICR) mice; 100 mg/kg/day): Minimal to mild myofiber degeneration in the skeletal muscle; adverse effect, heart (Crl:CD1 (ICR) mice; 750 mg/kg/day): Minimal to mild myofiber degeneration in the heart; change in mean absolute reticulocyte count (Crl:CD1 (ICR) mice; 750 mg/kg/day): −29%; change in mean platelet count (Crl:CD1 (ICR) mice; 750 mg/kg/day): +96%; leukocyte counts (non-adverse) (Crl:CD1 (ICR) mice; 750 mg/kg/day): Minimal to mild decreases in lymphocyte counts and inconsistent decreases in most other leukocyte subtypes; microscopic finding, duodenum (Crl:CD1 (ICR) mice; 750 mg/kg/day): Minimal to mild erosion/ulceration of the proximal duodenum; microscopic finding, liver (Crl:CD1 (ICR) mice; 750 mg/kg/day): Centrilobular hepatocellular hypertrophy (typically of minimal severity); microscopic finding, thymus (Crl:CD1 (ICR) mice; 750 mg/kg/day): Minimal to mild thymic cortical lymphoid depletion; organ weights (non-adverse) (Crl:CD1 (ICR) mice; 750 mg/kg/day): Increased liver and heart weights; NOAEL at 28 days [10]: 375 mg/kg/day; clinical observation, stool (non-adverse) ([11]; cynomolgus monkey, in vivo, 50 mg/kg/day): discolored and/or watery stool; clinical observation, urine (non-adverse) [11, 20]: dose-dependent incidents of discolored urine; microscopic finding, skeletal muscle (non-adverse) [11, 20]: Minimal myofiber degeneration in skeletal muscle; mortality, body weight, ophthalmic examinations, electrocardiograms, clinical pathology, macroscopic observations, organ weights ([11]; monkeys, 50, 150, 375 mg/kg/day, 28 days): no compound-related effects; dose proportionality of Cmax and AUC ([12]; Day 14, multiple daily doses 10 mg to 150 mg): approximately dose-proportional manner; effect of food on PK ([12]; current capsule formulation, fed vs fasted): limited effect; accumulation ([12]; daily dosing for 14 days): limited to no observed accumulation; AUC ([12]; human, in vivo, oral, humans, 150 mg, read-out: observed AUCLST): 1360 ng·h/mL; half-life at 14 days ([12]; human, plasma, oral, Day 14, multiple daily doses 10 mg to 150 mg, read-out: t½, geometric mean): 1.96 to 4.39 h; Tmax at 14 days ([12]; human, plasma, oral, multiple daily doses, 10 mg to 150 mg): 1 to 2.5 h; Tmax ([12]; human, plasma, single oral dose, 3 mg to 400 mg, read-out: median Tmax): 1 to 3 h; half-life ([12]; human, plasma, single oral dose, 3 mg to 400 mg, read-out: terminal elimination half-life (t½), geometric mean): 1.66 to 6.95 h; predicted human bioavailability ([12]; prediction before food effect part): 25%; dose proportionality of Cmax and AUC ([12]; single oral dose, 3 mg to 400 mg): approximately dose proportional manner; inhibition of TNF-α secretion (TNF-α secretion by PBMCs): approximately 70%; inhibition of intestinal CYP3A4/5 (CYP3A4/5): potential for direct and time-dependent inhibition; Paw Swelling Inhibition (%) ([13]; 100 mg/kg daily oral gavage): 65%; dose dependence of inhibition of paw swelling ([13]; 20 and 100 mg/kg): dose-dependent inhibition of paw swelling; cytokines IL-7, IL-1β; chemokines MCP-1, MIP-1α, KC; GM-CSF ([13]; HLA-B27/Huβ2m rats): A trend towards decreases; Minimally Efficacious Dose (lowest tested dose determined to be effective) ([13]; endpoint paw score): 20 mg/kg
